Measured values reported in ChEMBL document CHEMBL4359832, “Fragment-Based Discovery of Novel Potent Sepiapterin Reductase Inhibitors” (J Med Chem, 2019).

Test: physchem
Conditions: buffer, pH 7.4

Structure (SMILES) | logD
CC1Cc2ccccc2N1C(=O)c1c(O)cc(Cl)cc1Cl (stereo not drawn) | 3.5
COc1cc(Cl)cc(Cl)c1C(=O)N1CCC2(CCC2)C1 | 4
O=C(c1ncc(Cl)cc1O)N1CCC2(CCC2)C1 | 4.9
O=C(c1c(O)cc(Cl)cc1Cl)N1CCC(Cc2ccccc2)C1 (stereo not drawn) | 3.8
O=C(c1c(O)cncc1Cl)N1CCC2(CCC2)C1 | 1.2

Next, values leading:

logD | Structure (SMILES)
3.7 | O=C(c1c(O)cc(Cl)cc1Cl)N1CCCC2(CCC2)C1
1.7 | O=C(c1c(O)cc(Cl)cc1Cl)N1CCC(c2cccnc2)C1 (racemic)
1.6 | Cn1cc(C2CCN(C(=O)c3c(O)cc(Cl)cc3Cl)C2)cn1 (racemic)
